According to ChEMBL document CHEMBL5143648, “Exploration of inhibitors of the bacterial LexA repressor-protease” (Bioorg Med Chem Lett, 2022):

Assay: Inhibition of N-terminal tetra-cysteine tagged LexA repressor (unknown origin) assessed as reduction in RecA-mediated autoproteolysis by measuring release of fluorophore-labeled peptide using FlAsH-EDT2 as fluorescent substrate by FlAsH-LexA assay
Parameters: species or system Bacteria

IC50, > 250 µM:
Nc1c(C(=O)Nc2ccccc2)nnn1CC(=O)Nc1ccc(Cl)cc1
Nc1ccc(NC(=O)Cn2nnc(C(=O)Nc3ccccc3)c2N)cc1
Nc1c(C(=O)Nc2ccccc2)nnn1CC(=O)NC1CCCCCC1
Cc1ccc(/N=C2\NC(=O)C(N)=C2C(=O)Nc2ccccc2)cc1
Nc1c(C(=O)Nc2ccccc2)nnn1CC(=O)Nc1c(Cl)cc(Cl)cc1Cl
Nc1c(C(=O)Nc2ccccc2)nnn1CC(=O)Nc1ccc(O)cc1
Nc1c(C(=O)Nc2ccccc2)nnn1CC(=O)Nc1ccc(C(=O)C(F)(F)F)cc1
Cc1ccc(NC(=O)Cn2nnc(C(=O)Nc3ccccc3)c2N)c(C)c1
Cc1ccccc1NC(=O)Cn1nnc(C(=O)Nc2ccccc2)c1N

IC50, 48 µM:
CCOc1ccc(NC(=O)Cn2nnc(C(=O)Nc3ccccc3)c2N)cc1

IC50, 107 µM:
Cc1ccc(NC(=O)Cn2nnc(C(=O)Nc3ccccc3)c2N)cc1

IC50, 75 µM:
COC(=O)c1ccc(NC(=O)Cn2nnc(C(=O)Nc3ccccc3)c2N)cc1
